Experiment [1] deals with T1, Renal Dipeptidase (RDP) (Homo sapiens, UniProt P16444).
T1 construct: from tissue; host or cells: small intestine lysate
T1 sequence (P16444 17-385): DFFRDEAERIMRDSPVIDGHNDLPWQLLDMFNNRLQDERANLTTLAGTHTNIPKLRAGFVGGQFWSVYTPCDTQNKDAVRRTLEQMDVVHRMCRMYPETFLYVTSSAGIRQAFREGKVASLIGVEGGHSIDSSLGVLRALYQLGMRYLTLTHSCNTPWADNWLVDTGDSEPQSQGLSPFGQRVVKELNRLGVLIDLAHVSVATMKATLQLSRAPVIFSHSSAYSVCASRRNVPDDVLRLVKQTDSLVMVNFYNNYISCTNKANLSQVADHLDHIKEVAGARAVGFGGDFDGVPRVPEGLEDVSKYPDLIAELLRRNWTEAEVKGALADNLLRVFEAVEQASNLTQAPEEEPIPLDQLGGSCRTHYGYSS
In words: RDP inhibition assay (IC50), small intestine lysate, fluorogenic substrate ε-DNP-L-Lys-D-Amp. The experiment is classed as biochemical. Here is the method: Inhibitors were diluted from MeOH stock solution in water. […] After mixing incubated at 37° C. Florescence was measured at 30 sec intervals. The IC50 values were determined using small Intestine lysate.

For experiment [2], the target named is T2, Renal Dipeptidase (RDP) (Homo sapiens, UniProt P16444). The following applies: read-out: RDP inhibition Ki; colon cancer lysate; Table 1. Here is the method: The assay buffer was prepared by mixing 20 mM Tris, pH=8, 10 μM ZnCl2. 1 mM substrate (ε-DNP-L-Lys-D-Amp) stock solution in DMSO was prepared. Inhibitors were diluted from MeOH stock solution in water. […] of lysate was taken in 150 μl of assay buffer and 20 μl of inhibitor was added. The mixture was incubated at room temperature for 30 min. It was then transferred to plate containing 2 μl/well, 1 mM substrate in DMSO. After mixing incubated at 37° C. Florescence was measured at 30 sec intervals. The IC50 values were determined using small Intestine lysate. Ki values were determined for selected compounds using colon cancer lysate.
(§1) The RDP inhibition activity of these compounds was determined using crude lysates prepared from human colon cancers. The results are expressed as the concentration of inhibitor needed to inhibit enzyme activity by 50% (IC50). Human colon cancer extracts were prepared by homogenizing one cm^3 of frozen colon tissue in 10 ml of 20 mM Tris, pH 8.0, 10 μM ZnCl2, 0.1% Triton X 100. The extract was clarified by centrifugation at 13,000×g for 5 minutes at 4° C. and, for each measurement, 20 μl was diluted into 158 μl of 20 mM Tris, pH 8.0, 10 μM ZnCl2. 20 μl of the synthesised compounds were added to each reaction to obtain final concentrations ranging from 0 to 10 μM. The mixtures were incubated at room temperature for 30 minutes to allow enzyme-inhibitor complex formation, and the reactions were initiated by the addition of 2 μl of 1 mM substrate (εDNP-L-Lys-D-Amp).^14 While incubating at 37° C., fluorescence (λex=320 nm, λem=405 nm) measurements were determined at 30 sec intervals and the relative reaction rate was taken as the rate of increase of fluorescence over time.

The target of experiment [3] is T2, Renal Dipeptidase (RDP). The following applies: for RDP inhibitor potency in words / activity of Z isomers relative to their E counterparts (9, 11 and 13): human colon cancer lysate, numbering of Table 3; for IC50: read-out: RDP inhibition activity IC50, colon cancer lysate, Table 3. Here is the method: as §1

Broadly, the IC50 is the concentration that inhibits the measured activity by half. Broadly, the Ki is a measure of affinity in units of concentration, obtained from inhibition or displacement.

Read-outs that look alike come from different tables or passages of the source.

On Renal Dipeptidase (RDP) [1] (Table 1), `NC(CC1CCCCC1)P(=O)(O)CC(=Cc1ccc(I)cc1)C(=O)O` (mixture of isomers) [compound 14] displayed a concentration for half-maximal inhibition (IC50) of 45 nM. Besides, at Renal Dipeptidase (RDP) [2], the Ki stood at 3 nM.
As for `NC(CC1CCCCC1)P(=O)(O)CC(=Cc1ccc(I)cc1)C(=O)O` (mixture of isomers) [compound 15], on Renal Dipeptidase (RDP) [3], the “RDP inhibitor potency in words” value is “far less active” and the concentration for half-maximal inhibition (IC50) stood at 45 nM. For the same compound, on Renal Dipeptidase (RDP) [1] (Table 1), 250 nM corresponded to half-maximal inhibition (IC50). In addition, the Ki at Renal Dipeptidase (RDP) [2] was determined as 10 nM.
`NC(CC1CCCCC1)P(=O)(O)C/C(=C\c1ccccc1)C(=O)O` (centres unmarked) [compound 6] came in with an IC50 against Renal Dipeptidase (RDP) [1] (Table 1) of 28 nM. Besides, the Ki on Renal Dipeptidase (RDP) [2] is 1.12 nM.
For `NC(CC1CCCCC1)P(=O)(O)C/C(=C/c1ccccc1)C(=O)O` (centres unmarked) [compound 7], in that order: 40 nM and 1.6 nM.
On to `NC(CC1CCCCC1)P(=O)(O)C/C(=C\c1ccc(F)cc1)C(=O)O` (centres unmarked) [compound 8], for which, at Renal Dipeptidase (RDP) [3], the “RDP inhibitor potency in words” value is recorded as “potent RDP inhibitors”; the “activity of Z isomers relative to their E counterparts (9, 11 and 13)” value is given as “significantly more active”; the IC50 amounted to 5.5 nM. Moreover, the IC50 on Renal Dipeptidase (RDP) [1] (Table 1) is 5 nM. At Renal Dipeptidase (RDP) [2], the Ki came out at 0.6 nM.
For the compound `NC(CC1CCCCC1)P(=O)(O)C/C(=C/c1ccc(F)cc1)C(=O)O` (centres unmarked) [compound 9], the concentration for half-maximal inhibition (IC50) at Renal Dipeptidase (RDP) [3] stood at 300 nM; against Renal Dipeptidase (RDP) [1] (Table 1) it was 15 nM. Besides, the Ki on Renal Dipeptidase (RDP) [2] is 0.72 nM.
In the case of `NC(CC1CCCCC1)P(=O)(O)C/C(=C\c1ccc(Br)cc1)C(=O)O` (centres unmarked) [compound 10], on Renal Dipeptidase (RDP) [3], the “RDP inhibitor potency in words” value is reported as “potent RDP inhibitors”; the “activity of Z isomers relative to their E counterparts (9, 11 and 13)” value is given as “significantly more active”; the IC50 is 8 nM. The compound also had an IC50 against Renal Dipeptidase (RDP) [1] (Table 1) of 6 nM. The Ki at Renal Dipeptidase (RDP) [2] came out at 0.72 nM.
As to `NC(CC1CCCCC1)P(=O)(O)C/C(=C/c1ccc(Br)cc1)C(=O)O` (centres unmarked) [compound 11], the concentration for half-maximal inhibition (IC50) at Renal Dipeptidase (RDP) [3] turned out to be 25 nM; at Renal Dipeptidase (RDP) [1] (Table 1), 30 nM. Besides, the Ki at Renal Dipeptidase (RDP) [2] is 2.4 nM.
`NC(CC1CCCCC1)P(=O)(O)C/C(=C\c1ccc(I)cc1)C(=O)O` (centres unmarked) [compound 12]: at Renal Dipeptidase (RDP) [3], the “RDP inhibitor potency in words” value is recorded as “potent RDP inhibitors”; the “activity of Z isomers relative to their E counterparts (9, 11 and 13)” value is recorded as “significantly more active”; the IC50 was 3.5 nM. The midpoint of inhibition against Renal Dipeptidase (RDP) [1] (Table 1), the IC50, lay at 8 nM. For the same compound, the inhibition constant Ki on Renal Dipeptidase (RDP) [2] was determined as 0.6 nM.
Take `NC(CC1CCCCC1)P(=O)(O)C/C(=C/c1ccc(I)cc1)C(=O)O` (centres unmarked) [compound 13]: the IC50 is 60 nM on Renal Dipeptidase (RDP) [3] and 25 nM against Renal Dipeptidase (RDP) [1] (Table 1). Besides, the inhibition constant Ki at Renal Dipeptidase (RDP) [2] stood at 2 nM.
`NC(CC1CCCCC1)P(=O)(O)C/C(=C\c1ccc(C(F)(F)F)cc1)C(=O)O` (centres unmarked) [compound 18] displayed a concentration for half-maximal inhibition (IC50) against Renal Dipeptidase (RDP) [1] (Table 2) of 10 nM.
Still for that read-out and setting: for `NC(CC1CCCCC1)P(=O)(O)C/C(=C/c1ccc(C(F)(F)F)cc1)C(=O)O` (centres unmarked) [compound 19] the value was 200 nM; for `CCN(CC)c1ccc(/C=C(\CP(=O)(O)C(N)CC2CCCCC2)C(=O)O)cc1` (centres unmarked) [compound 26], 70 nM; for `CCN(CC)c1ccc(/C=C(/CP(=O)(O)C(N)CC2CCCCC2)C(=O)O)cc1` (centres unmarked) [compound 27], 150 nM.

(Values after patent US7785564B2, “Design and synthesis of renal dipeptidase inhibitors” (The Johns Hopkins University, priority 2002, dated 2010).)
